Legend:
[1] = tested on: NCI-H1299 human NSCLC xenograft tumors
Source text: The effect of combination treatment of an Mps-1 kinase inhibitor (Compound A1) with docetaxel, another SAC activating, […], anti-mitotic agent, used as standard of care in NSCLC patients, was studied in the NCI-H1299 taxane intrinsically resistant human lung carcinoma (NSCLC) xenograft model in nude mice.
Docetaxel was applied intravenously once per week upon its respective MTD. Substances were formulated in optimal vehicles to achieve solutions. Animal body weight and tumor size were determined two times weekly. […] For combination treatment Compound A1and docetaxel were applied at the same day within a time frame of 4 hours. Animals of control and Mps-1 kinase inhibitor monotherapy group were treated for a duration of 20 days. Animals of docetaxel monotherapy and docetaxel/Mps-1 kinase inhibitor combination treatment groups were treated for a duration of 42 days. At the end of the study after one final treatment plasma and tumors were sampled for PK analysis and final tumor weight was determined.
NCI-H1299 human NSCLC tumor cells were implanted s.c. into nude mice on day 0. […] Compound A1 was administered orally (p.o.) upon 2.0 mg/kg twice daily (2QD) for 2 days on/5 days off (2 on/5 off) in monotherapy and in combination with docetaxel. Docetaxel was administered intravenously (i.v.) upon 15 mg/kg once daily (QD) once per week (1 on/6 off) in monotherapy and combination therapy. Tumor growth was monitored by determination of the tumor area using calliper measurement two to three times weekly. FIG. 2A: Time course of tumor growth. FIG. 2B: Weight of tumors in docetaxel/Mps-1 kinase inhibitor combination group at the end of the study at day 52 after tumor cell inoculation. FIG. 2C: Time course of animal body weight change during the course of the study.

[2] = tested on: A2780 human ovarian carcinoma model; assay type: in vivo; details: Compound A1 single agent 1 mg/kg and 2.5 mg/kg (8 days); triple combination (17 treatment days)
Method: Cisplatin and paclitaxel were administered in combination at their respective MTD, cisplatin intraperitoneally (IP) every second week (Q2W) and paclitaxel IV QW.

[3] = Compound A1 2 mg/kg 2QD 2on/5off p.o., docetaxel 15 mg/kg QD 1on/6off i.v.

COc1cc(S(C)(=O)=O)ccc1Nc1nc2ccc(-c3ccc(NC(=O)[C@H](C)c4ccc(F)cc4)cc3)cn2n1 [Compound A1]
Fatal Tox [1, 3]: 0/8 | Max. Body weight loss (%) [1, 3]: −3% | anti-tumor efficacy (in words) ([1]; Compound A1 2 mg/kg 2QD p.o. (20 treatment days), combination with docetaxel 15 mg/kg i.v. (42 treatment days)): weak efficacy | T/C weight ([1]; mean final tumor weight, Compound A1 2 mg/kg 2QD 2on/5off p.o.): 1.01 | T/C area ([1]; relative mean tumor area, 20 treatment days, Compound A1 2 mg/kg 2QD 2on/5off p.o., docetaxel 15 mg/kg QD 1on/6off i.v.): 0.89 | anti-tumor efficacy (in words) [2]: weak single-agent efficacy

Reference: patent US20160128988A1, “COMBINATIONS FOR THE TREATMENT OF CANCER COMPRISING A MPS-1 KINASE INHIBITOR AND A MITOTIC INHIBITOR” (BAYER PHARMA AKTIENGESELLSCHAFT, priority 2013, published 2016)
